# Assay results published in PubChem BioAssay AID602211 (Sanford-Burnham Center for Chemical Genomics, 2012).
# Activity calls are given as the source filed them.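 How the source made its calls: active means mean IC50 at or below 10 µM; inactive means the rest.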
# Test system: H9c2 cardiomyocytes, H2O2 protection, ATPLite viability, 2 h
# Assay: protection of H9c2 cardiomyocytes from H2O2 death, dose response, cell-based, ATPLite luminescence, set 2 (AID 602211);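 further: potency is for protection so actives keep ATP signal up against peroxide killing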
row,Compound,IC50
1,COc1ccc(CNn2c(-c3cccs3)nc3ccccc3c2=O)cc1OC,7.18 µM
2,CCOc1ncccc1C(=O)Nc1cccc(-c2nc3cccnc3s2)c1,3.51 µM
3,COc1ccc(C=CC(=O)c2ccc3cc(OC)c(OC)cc3c2)cc1OC,2.47 µM
4,CC(C)c1ccccc1NC(=O)COC(=O)c1c2c(nc3ccccc13)CCN(Cc1ccccc1)C2,5.25 µM
5,COc1cc(C(=O)Nc2cc3c(cc2N2CCCCC2)n(C)c(=O)n3C)cc(OC)c1OC,11.2 µM (inactive)
6,CCOc1ccccc1NC(=O)c1oc2ccccc2c1NC(=O)C1CCCO1 (configuration not stated),4.13 µM
7,COc1ccc(-c2ccc3c(c2)S(=O)(=O)c2cccc(C(=O)N4CCN(c5c(Cl)cncc5Cl)CC4)c2C3=O)cc1OC,4.27 µM
8,S=C(Nc1ccc(N2CCOCC2)cc1)Nc1ccc2nc(-c3ccco3)c(-c3ccco3)nc2c1,10.7 µM (inactive)
9,COc1ccc(-c2nnc(-c3cc(OC)c(OC)c(OC)c3)o2)cc1OC,43.9 µM (inactive)
10,O=C(CN1CCN(Cc2ccccc2)CC1)Nc1ccc([N+](=O)[O-])cc1C(=O)Nc1ccccc1F,4.75 µM
11,COc1cccc(-c2cnc3c(NC=O)cc(-c4cccc(C(=O)N(C)C)c4)cn23)c1,12.6 µM (inactive)
12,COc1cccc(-c2cnc3c(NC=O)cc(-c4ccc(O)c(OC)c4)cn23)c1,5.89 µM
13,CCOC(=O)C1=C(COC(=O)c2cc(OC)c(OC)c(OC)c2)NC(=O)NC1C (configuration not stated),5.68 µM
14,Cc1cc(C)cc(OCC(=O)Nc2cccc(-c3nc4ncccc4o3)c2)c1,> 79 µM (inactive)
15,CSc1nc2ncc3c(n2n1)CC1c2ccccc2CCN1C3=O (configuration not stated),23 µM (inactive)
16,Brc1ccc(-c2ccc(/C=N/Nc3nc(N4CCOCC4)nc(N4CCOCC4)n3)o2)cc1,3.61 µM
17,O=C(CSc1ccc2nnc(-c3ccc(F)cc3)n2n1)N1CCCc2ccccc21,1.21 µM
18,CC(=O)c1ccc(N2CCN(C(=O)C3CCCN(c4ncnc5c4nc4n5CCCCC4)C3)CC2)cc1 (configuration not stated),2.68 µM
19,CS(=O)(=O)c1ccc(-c2cnc3c(NC=O)cc(-c4ccsc4)cn23)cc1,12.5 µM (inactive)
20,CCOC(=O)c1nc(Nc2ccc(C(=O)OC)cc2)c2ccccc2n1,6.89 µM
21,C[C@H](CO)N1C[C@H](C)[C@@H](CN(C)S(=O)(=O)c2ccccc2)Oc2ccc(NC(=O)Nc3ccccc3)cc2C1=O,16.6 µM (inactive)
22,C=CC[C@@H](CC(=O)NCCO)C(=O)NC[C@H](OC(=O)[C@@H](CC=C)Cc1ccc(F)cc1)c1ccccc1,3.38 µM
23,O=C(CNC(=O)c1nc[nH]c1C(=O)NCC(=O)OCc1ccccc1)OCc1ccccc1,0.38 µM
24,Cc1cccc(NC(=O)c2oc3ccc(S(=O)(=O)N4CCOCC4)cc3c2C)c1C,3.23 µM

row,Compound,IC50
1,COc1cccc(-c2cnc3c(NC=O)cc(-c4cccc(NC(C)=O)c4)cn23)c1,5.98 µM
2,COc1cc(/C=C(\C#N)C(=O)Nc2ccccc2F)ccc1OCCN1CCOCC1,15.9 µM (inactive)
3,COc1ccc(-c2cc(C(=O)Nc3ccccc3N3CCOCC3)c3ccccc3n2)cc1OC,4.52 µM
4,CC(OC(=O)c1cc(-c2cccnc2)nc2ccccc12)C(=O)Nc1ccc2ccccc2c1 (configuration not stated),5.97 µM
5,COc1ccc(-c2cc3nc(-c4ccccc4)cc(N4CCN(C(=O)c5ccoc5)CC4)n3n2)cc1,4.91 µM
6,C=CCn1cnc2c(c1=O)c1nc3ccccc3nc1n2/N=C/c1cc(OC)c(OC)c(OC)c1,1.09 µM
7,Cc1cc(NC(=O)C2CCCCC2)nc2c1c(=O)oc1ccccc12,23.7 µM (inactive)
8,COc1ccc(C(=O)Nc2cccc(NC(=O)c3ccc(OC)c(OC)c3)n2)cc1OC,1.49 µM
9,COc1ccc2occ(C(=O)c3coc4ccc(O)c(CN(C)C)c34)c2c1,4.32 µM
10,COCCn1nnnc1CN(CCc1ccccc1)Cc1cc2cc(OC)ccc2[nH]c1=O,5.12 µM
11,CNC(=O)c1cccc(NC(=O)c2cc(-c3ccccc3)nc3c2cnn3C(C)C)c1,> 79 µM (inactive)
12,COC(=O)c1[nH]c2ccccc2c1NC(=O)CNC1CCCCC1,8.49 µM
13,COc1ccc(N(CC(=O)N/N=C/c2cccs2)S(=O)(=O)c2ccc(OC)c(OC)c2)cc1,10.3 µM (inactive)
14,CCOc1ccccc1N1CC(O)=C(c2nc3ccccc3s2)C1=N,> 79 µM (inactive)
15,COc1ccc(-c2cc(C(=O)N(C)Cc3ccccc3F)c3ccccc3n2)cc1OC,> 79 µM (inactive)
16,CC(=O)Nc1ccc(S(=O)(=O)N(Cc2cccnc2)Cc2cc3ccccc3[nH]c2=O)cc1,1.51 µM
17,C[C@H](NC(=O)c1nc[nH]c1C(=O)NCC(=O)OCc1ccccc1)c1ccccc1,1.6 µM
18,Cc1ccc(-c2nn3c(-c4ccco4)nnc3c3ccccc23)cc1S(=O)(=O)NCC1CCCO1 (configuration not stated),10.6 µM (inactive)
19,CCOc1ccc(-n2cc(-c3ccccc3)c3c(N4CCOCC4)ncnc32)cc1,6.61 µM
20,COc1ccc(C(=O)Nc2cc(C)nn2-c2nc3ccccc3[nH]2)c(OC)c1,10.9 µM (inactive)
21,Brc1cc2c(cc1/C=N/Nc1nc(N3CCCC3)nc(N3CCOCC3)n1)OCO2,8.27 µM
22,CC(=O)N1CCN(c2ccccc2NC(=O)c2ccc(-c3cccc([N+](=O)[O-])c3)o2)CC1,23.7 µM (inactive)
23,CNC(=O)c1ccc(-c2sc3nc(N4CCOCC4)c4c(c3c2N)CCCC4)o1,11.6 µM (inactive)
